The values that follow come from ChEMBL document CHEMBL5584214, “Design of MERS-CoV entry inhibitory short peptides based on helix-stabilizing strategies” (Bioorg Med Chem Lett, 2024).

Molecules are shown by their SMILES. ≈ marks a conversion by molar mass, not a printed value. Calls of active or inactive are those of the source. The calls are words filed in the database; no cut-off is given here. Non-standard residues stand in square brackets, D forms with d. Residues, ends and D or L forms follow the SMILES beside them. *: point of attachment. PEG12 = NCCOCCOCCOCCOCCOCCOCCOCCOCCOCCOCCOCCOCCC(=O)O; Palmitoyl = CCCCCCCCCCCCCCCC(=O)*; AEEA = NCCOCCOCC(=O)O; Aib = CC(C)(N)C(=O)O

By MRT last is commonly meant a mean duration of stay, worked out from the concentration-time curve. The term EC50 denotes the concentration that produces a half-maximal response. Usually Vd stands for a proportionality between amount in the body and measured concentration, not a real space. A lower Vd goes with confinement near the circulation. For orientation: half-life means the time in which the quantity being followed falls by half. Higher therefore signals slow loss. The term Cmax denotes the highest concentration seen after dosing. For orientation: clearance means a measure of how efficiently the substance is removed, as volume per time. A lower clearance goes with inefficient removal. The term AUC(0-t) denotes the area under the concentration-time curve up to a stated or last time point. Lower therefore signals less exposure. Usually solubility stands for the dissolved amount per volume that the medium holds. In general, CC50 refers to the concentration that lowers cell viability or growth by half.

A short description of series [1]: MRT (0 to t) in Sprague-Dawley rat at 4 mg/kg, iv administered as single dose and measured upto 36 hrs by LC-MS/MS analysis. The series is classed as ADME, organism-based. Conditions: in vivo.
The nature of series [2]: Inhibition of MERS-CoV Spike glycoprotein mediated cell-cell fusion. The arrangement: species or system Middle East respiratory syndrome-related coronavirus.
The nature of series [3]: Volume of distribution in Sprague-Dawley rat at 4 mg/kg, iv administered as single dose and measured upto 36 hrs by LC-MS/MS analysis. The series is classed as ADME, organism-based. Particulars: in vivo.
A short description of series [4]: Half life in Sprague-Dawley rat at 4 mg/kg, iv administered as single dose and measured upto 36 hrs by LC-MS/MS analysis. The series is classed as ADME, organism-based. Particulars: in vivo.
A short description of series [5]: Cmax in Sprague-Dawley rat at 4 mg/kg, iv administered as single dose and measured upto 36 hrs by LC-MS/MS analysis. The series is classed as ADME, organism-based. Conditions: in vivo.
Series [6] is described as follows: Clearance in Sprague-Dawley rat at 4 mg/kg, iv administered as single dose and measured upto 36 hrs by LC-MS/MS analysis. Type of series: ADME, organism-based. Conditions: in vivo.
Series [7] in a line: AUC (0 to t) in Sprague-Dawley rat at 4 mg/kg, iv administered as single dose and measured upto 36 hrs by LC-MS/MS analysis. The series is classed as ADME, organism-based. Conditions: in vivo.
Series [8] deals with Middle East respiratory syndrome-related coronavirus. The series is described as follows: Inhibition of MERS CoV spike glycoprotein HR1/HR2 fusion assessed as disruption of fusion-active core formation by measuring reduction in six-helix bundle density at 100 uM by native-PAGE analysis.
For series [9] the test system is unchanged. The series is described as follows: Inhibition of MERS CoV spike glycoprotein HR1/HR2 fusion assessed as disruption of fusion-active core formation by measuring increase in HR2P density at 100 uM by native-PAGE analysis.
The test system is the same in series [10]. Description: Antiviral activity against MERS CoV pseudovirus infected in Huh-7 cells assessed as inhibition of viral infection. The series is classed as functional, organism-based.
The nature of series [11]: Water solubility of compound in PBS at pH 7.4. The series is classed as physicochemical.
The nature of series [12]: Selectivity index, ratio of CC50 for human Huh-7 cells infected with MERS CoV pseudovirus to EC50 for MERS CoV pseudovirus infected in Huh-7 cells. Type of series: toxicity, cell-based. Conditions: read-out: Ratio CC50/EC50.
A short description of series [13]: Water solubility of compound in dd-H2O. The series is classed as physicochemical.
Series [14] is described as follows: Cytotoxicity against human Huh-7 cells infected with MERS CoV pseudovirus assessed as reduction in cell viability. The series is classed as toxicity, cell-based.

With `CC[C@H](C)[C@H](NC(=O)[C@H](Cc1ccc(O)cc1)NC(=O)[C@H](CO)NC(=O)[C@H](CCC(=O)O)NC(=O)[C@H](CCC(=O)O)NC(=O)[C@H](CC(C)C)NC(=O)[C@H](CCCCN)NC(=O)[C@H](CCCCN)NC(=O)[C@@H](NC(=O)[C@@H](NC(=O)[C@H](CCC(=O)O)NC(=O)[C@H](CCC(=O)O)NC(=O)[C@H](CC(C)C)NC(=O)[C@H](CCCCN)NC(=O)[C@H](CCCCN)NC(=O)[C@H](CCSC)NC(=O)[C@H](CCC(=O)O)NC(=O)[C@H](Cc1ccc(O)cc1)NC(=O)[C@H](CCC(=O)O)NC(=O)[C@H](CC(C)C)NC(=O)[C@H](CC(=O)O)NC(=O)[C@H](CC(C)C)NC(=O)[C@H](CC(C)C)NC(=O)[C@@H](NC(=O)[C@@H](NC(=O)[C@H](CC(N)=O)NC(=O)[C@@H](NC(=O)[C@H](CCC(N)=O)NC(=O)[C@@H](NC(=O)[C@H](CC(C)C)NC(=O)[C@@H](N)CO)[C@@H](C)O)[C@@H](C)CC)[C@@H](C)O)[C@@H](C)O)C(C)C)C(C)C)C(=O)N[C@@H](CC(=O)O)C(=O)N[C@@H](CC(C)C)C(=O)N[C@@H](CCCCN)C(=O)N[C@@H](CCC(=O)O)C(=O)N[C@@H](CC(C)C)C(=O)O`, in series [1], the MRT last at 36 h is 0.28 h. Also, in series [2], the EC50 came to 0.75 µM. The compound also had a Vd in series [3] of 0.307 L/kg. Besides, in series [4], the half-life is 0.35 h. For the same compound, the peak level in series [5] (Cmax) was 30400 ng/mL. Also, the clearance in series [6] is 10.2 mL/min/kg. For the same compound, the AUC(0-t) at 36 h in series [7] was 6450 ng·h/mL.

`CCCCCCCCCCCCCCCC(=O)NCCCC[C@H](NC(=O)COCCOCCNC(=O)[C@H](Cc1ccc(O)cc1)NC(=O)[C@H](CO)NC(=O)[C@H](CCC(=O)O)NC(=O)[C@H](CC(N)=O)NC(=O)[C@H](CC(C)C)NC(=O)[C@H](CCCCN)NC(=O)[C@H](CCCCN)NC(=O)[C@@H](NC(=O)[C@@H](NC(=O)[C@H](CCC(=O)O)NC(=O)[C@H](CCC(N)=O)NC(=O)[C@H](CC(C)C)NC(=O)[C@H](CO)NC(=O)[C@H](CC(C)C)NC(=O)[C@H](CCSC)NC(=O)C(C)(C)NC(=O)[C@H](Cc1ccc(O)cc1)NC(=O)[C@@H](NC(=O)[C@H](CC(C)C)NC(=O)C(C)(C)NC(=O)[C@H](CC(C)C)NC(C)=O)[C@@H](C)O)C(C)C)C(C)C)C(N)=O` (Ac-L[Aib]LTY[Aib]MLSLQEVVKKLNESY[AEEA]K(Palmitoyl)-NH2) displayed a mean residence time (MRT last) at 36 h in series [1] of 9.1 h. Moreover, the inhibition entry in [8] and in series [9] was “Active” each time. Moreover, the EC50 in series [2] came out at 0.245 µM; in series [10] it was 5.22 µM. Also, the Vd in [3] stood at 0.683 L/kg. The half-life in [4] is 7.27 h. This compound also had a Cmax in series [5] of 5000 ng/mL. Moreover, the clearance in series [6] is 1.08 mL/min/kg. Also, the AUC(0-t) at 36 h in series [7] was found to be 59800 ng·h/mL. The solubility in series [11] turned out to be 5.46 µM (≈ 16.4 µg/mL); in series [13], 1.17 µM (≈ 3.5 µg/mL). Moreover, in series [12], the selectivity ratio was > 38.3. For the same compound, the CC50 in [14] was > 200 µM.

For the compound `CCCCCCCCCCCCCCCC(=O)NCCCC[C@H](NC(=O)CCOCCOCCOCCOCCOCCOCCOCCOCCOCCOCCOCCOCCNC(=O)[C@H](Cc1ccc(O)cc1)NC(=O)[C@H](CO)NC(=O)[C@H](CCC(=O)O)NC(=O)[C@H](CC(N)=O)NC(=O)[C@H](CC(C)C)NC(=O)[C@H](CCCCN)NC(=O)[C@H](CCCCN)NC(=O)[C@@H](NC(=O)[C@@H](NC(=O)[C@H](CCC(=O)O)NC(=O)[C@H](CCC(N)=O)NC(=O)[C@H](CC(C)C)NC(=O)[C@H](CO)NC(=O)[C@H](CC(C)C)NC(=O)[C@H](CCSC)NC(=O)C(C)(C)NC(=O)[C@H](Cc1ccc(O)cc1)NC(=O)[C@@H](NC(=O)[C@H](CC(C)C)NC(=O)C(C)(C)NC(=O)[C@H](CC(C)C)NC(C)=O)[C@@H](C)O)C(C)C)C(C)C)C(N)=O` (Ac-L[Aib]LTY[Aib]MLSLQEVVKKLNESY[PEG12]K(Palmitoyl)-NH2), a half-maximal response in series [2] (EC50) required 1.42 µM.

In series [2], `CSCC[C@H](NC(=O)C(C)(C)NC(=O)[C@H](Cc1ccc(O)cc1)NC(=O)[C@@H](NC(=O)[C@H](CC(C)C)NC(=O)C(C)(C)NC(=O)[C@H](CC(C)C)NC(C)=O)[C@@H](C)O)C(=O)N[C@@H](CC(C)C)C(=O)N[C@@H](CO)C(=O)N[C@@H](CC(C)C)C(=O)N[C@@H](CCC(N)=O)C(=O)N[C@@H](CCC(N)=O)C(=O)N[C@H](C(=O)N[C@H](C(=O)N[C@@H](CCCCN)C(=O)N[C@@H](C)C(=O)N[C@@H](CC(C)C)C(=O)N[C@@H](CC(N)=O)C(=O)N[C@@H](CCC(=O)O)C(=O)N[C@@H](CO)C(=O)N[C@@H](Cc1ccc(O)cc1)C(N)=O)C(C)C)C(C)C` gave an EC50 of 2.33 µM.
